Reference: article PMC6503114, “Application of Antimicrobial Peptides of the Innate Immune System in Combination With Conventional Antibiotics—A Novel Way to Combat Antibiotic Resistance?” (Frontiers in Cellular and Infection Microbiology, 2019)
Like-named read-outs stand apart in the source and are kept apart here. Marks after values point to notes of the source that are not given here. Bridges are numbered along the chain shown (N, C = ends). Where no end group is shown, it is not given here.

Experiments:
[1] = tested on: A. baumannii 7226/16; test: microbe, parasite or virus in culture; assay type: cell-based; conditions: Acinetobacter baumannii; A. baumannii 7226/16, drug-resistant clinical isolate
Method: (§1) Prior to the “checkerboard” synergy test the minimal inhibitory concentrations (MIC) of individual substances were determined using broth microdilution assay. Testing was performed in 60-well polystyrene Terasaki microplates with V-shaped bottom generally according to the guidelines of the European Committee for Antimicrobial Susceptibility Testing with subtle modifications designed for AMP testing (Tossi et al., [1997]; Wiegand et al., [2008]). Cultivation of bacteria was carried out in 2.1% Müller-Hinton broth at 37°C with shaking. Two-fold serial dilutions of peptides, antibiotics and other antimicrobials were made with 10 mM sodium phosphate buffer, pH 7.4, containing 0.1% of BSA. The plates were preliminary incubated with 0.1% BSA for 1 h at 37°C to reduce a non-specific binding of peptides to the plates. After that BSA was removed, and serial dilutions were added into the plate wells in triplicates followed by the same volume of the suspension of bacterial cells in logarithmic phase of growth in concentration of 1 × 10^6 CFU/ml. After the 18 h overnight incubation at 37°C, the MIC value for each compound was determined as its lowest concentration completely inhibiting the visible growth of bacteria. The final results were calculated as median values based on 3–6 independent experiments.

[2] = tested on: E. coli ESBL 521/17; test: microbe, parasite or virus in culture; assay type: cell-based; conditions: Escherichia coli, ESBL521/17; E. coli ESBL 521/17, drug-resistant clinical isolate; square brackets = twice the maximal tested concentration
Method: as §1

[3] = tested on: K. pneumoniae ESBL 344/17; test: microbe, parasite or virus in culture; assay type: cell-based; conditions: Klebsiella pneumoniae, ESBL344/17; K. pneumoniae ESBL 344/17, drug-resistant clinical isolate
Method: as §1

[4] = tested on: P. aeruginosa MDR 522/17; test: microbe, parasite or virus in culture; assay type: cell-based; conditions: Pseudomonas aeruginosa, MDR522/17; P. aeruginosa MDR 522/17, drug-resistant clinical isolate
Method: as §1

[5] = tested on: S. aureus 1399/17; test: microbe, parasite or virus in culture; assay type: cell-based; conditions: Staphylococcus aureus
Method: as §1

[6] = tested on: E. coli ESBL 521/17; test: Checkerboard titration (FICI); assay type: cell-based, Escherichia coli
Method: (§2) The combined antimicrobial action of AMPs and other antimicrobial compounds was assessed using checkerboard titration approach under the conditions similar to that of the microdilution assay. According to checkerboard titration template, one component (A) of the combination was diluted along the rows of the plate, while the other (B) was diluted down the columns, thereby creating the variety of mixtures with different concentrations of tested compounds. 2.5 μl of corresponding solutions of the components A and B were added into each well of the plate. Into the first column and the last row the same amount of 10 mM sodium phosphate buffer, pH 7.4, containing 0.1% of BSA was introduced instead of the second component. Thus, all wells contained 5 μl of antimicrobial compounds solutions (solo or in combination). The same volume of bacterial suspension, prepared as described for microdilution assay, was added into each well. The results were recorded after the overnight incubation, visually indicating the presence or absence of the microbial growth in the corresponding wells. Based on the obtained data the isobolograms of combined action were plotted and/or Fractional Inhibitory Concentration Indices (FICI) were calculated. […] Depending on the minimal value of the FICI the combined effect of the combination was classified as antagonism (FICI > 2), independent action (1 < FICI ≤ 2), additivity (0.5 < FICI ≤ 1) or synergy (FICI ≤ 0.5), as is recommended in the literature and due to some drawbacks of the serial dilution method (Hsieh et al., [1993]; Orhan et al., [2005]; Fehri et al., [2007]). FICIs were assessed in 3–6 independent experiments and median values were used to define the nature of interaction.

[7] = tested on: A. baumannii 7226/16; test: Checkerboard titration (FICI); assay type: cell-based, Acinetobacter baumannii
Method: as §2

[8] = tested on: P. aeruginosa MDR 522/17; test: Checkerboard titration (FICI); assay type: cell-based, Pseudomonas aeruginosa
Method: as §2

[9] = tested on: K. pneumoniae ESBL 344/17; test: Checkerboard titration (FICI); assay type: cell-based, Klebsiella pneumoniae
Method: as §2

[10] = tested on: S. aureus 1399/17; test: Checkerboard titration (FICI); assay type: cell-based, Staphylococcus aureus
Method: as §2

[11] = tested on: bacteria; test: Checkerboard titration, synergy cases with conventional antibiotics (all tested bacteria); assay type: cell-based; conditions: in vitro, human AMPs
Method: as §2, with “According” for “The combined antimicrobial action of AMPs and other antimicrobial compounds was assessed using checkerboard titration approach under the conditions similar to that of the microdilution assay. According”

[12] = tested on: MRSA ATCC 33591; test: microbe, parasite or virus in culture; assay type: cell-based, Staphylococcus aureus; conditions: median of 3–6 experiments, square brackets = twice the maximal tested concentration
[13] = antibiotic in combination with ChBac3.4
[14] = antibiotic in combination with PG-1
[15] = S. aureus 1399/17, drug-resistant clinical isolate, read-out: MIC

MIC [1] [µM] | MIC [2] [µM] | MIC [3] [µM] | MIC [4] [µM] | MIC [5, 15] [µM] | Compound | MIC ([5]; 1399/17) [µM] | Minimal FICI [6, 13] | Minimal FICI [6, 14] | Minimal FICI [7, 13] | Minimal FICI [7, 14] | Minimal FICI [8, 13] | Minimal FICI [8, 14] | Minimal FICI [9, 13] | Minimal FICI [9, 14] | Minimal FICI [10, 13] | Minimal FICI [10, 14] | AMP concentration in synergy cases with conventional antibiotics [11] [µM] | MIC [12]
6.25 | 1 | 0.25 | 1 | > 50 | NCC[C@H](O)C(=O)N[C@@H]1C[C@H](N)[C@@H](O[C@H]2O[C@H](CN)[C@@H](O)[C@H](O)[C@H]2O)[C@H](O)[C@H]1O[C@H]1O[C@H](CO)[C@@H](O)[C@H](N)[C@H]1O [Amikacin] | – | 0.62 | 0.38 | 0.5^* | 0.38^* | 0.5 | 0.5 | 0.38 | 0.31 | 0.125^* | 1.0 | – | –
> 50 | > 50 | 50 | > 50 | > 50 | CC[C@H]1OC(=O)[C@H](C)[C@@H](O[C@H]2C[C@@](C)(OC)[C@@H](O)[C@H](C)O2)[C@H](C)[C@@H](O[C@@H]2O[C@H](C)C[C@H](N(C)C)[C@H]2O)[C@](C)(O)C[C@@H](C)C(=O)[C@H](C)[C@@H](O)[C@]1(C)O [Erythromycin] | – | 0.38^* | 0.62 | 0.75 | 1.12 | 0.38^* | 0.5^* | 0.25^* | 0.25^* | 0.5^* | 0.75 | – | –
– | – | – | – | – | GIINTLQKYYCRVRGGRCAVLSCLPKEEQIGKCSTRGRKCCRRKK (disulfide 11-40, 18-33, 23-41 (inferred)) [hBD-3] | – | – | – | – | – | – | – | – | – | – | – | 0.08 to 3.75 | –
– | – | – | – | – | GIGDPVTCLKSGAICHPVFCPRRYKQIGTCGLPGTKCCKKP (disulfide 8-37, 15-30, 20-38 (inferred)) [hBD-2] | – | – | – | – | – | – | – | – | – | – | – | 0.2 to 1.6 | >100 [200] μM

Compound | MIC [1] [µM] | MIC [2] [µM] | MIC [3] [µM] | MIC [4] [µM] | MIC [5, 15] [µM] | MIC ([5]; 1399/17) [µM] | Minimal FICI [6, 13] | Minimal FICI [6, 14] | Minimal FICI [7, 13] | Minimal FICI [7, 14] | Minimal FICI [8, 13] | Minimal FICI [8, 14] | Minimal FICI [9, 13] | Minimal FICI [9, 14] | Minimal FICI [10, 13] | Minimal FICI [10, 14] | AMP concentration in synergy cases with conventional antibiotics [11] [µM] | MIC [12]
C[C@@H](O)[C@H]1C(=O)N2C(C(=O)O)=C(S[C@@H]3CN[C@H](C(=O)N(C)C)C3)[C@H](C)[C@H]12 [Meropenem] | > 50 | 0.04 | 0.04 | 25 | – | 6.25 | 1.0 | 1.0 | 0.5^* | 0.38^* | 0.62 | 1.0 | 1.0 | 1.0 | 0.31^* | 0.25^* | – | –
